{"source": "paper PMC12864978", "about": "“Covalent modification of a glutamic acid inspired by HaloTag technology” (Nature Communications, 2026)", "key": {"[1]": {"molecular_target": "T1, PDEδ in the presence of Arl2•GppNHp (Homo sapiens, UniProt O43924)", "T1 construct": "His tag; made in house; host or cells: Escherichia coli Rosetta (BL21DE3), pET plasmids", "assay": "Kinetics of covalent modification of PDEδ by MALDI in the presence of Arl2•GppNHp", "format": "binding", "conditions": "PDEδ: Arl2•GppNHp = 1:1, 3 eq. of 6a", "text": "(§1) Data are presented as mean ± s.e.m.\n(§2) The solution was briefly centrifuged before a sample was taken at the designated time for analysis by MALDI. […] Mass spectra were obtained over the m/z range 15,000–25,000 using a Bruker UltrafleXtreme XIAL DI-TOF/TOF mass spectrometer. Percentages of covalent adduct formation were estimated by the relative intensity of the respective peaks in MALDI spectra."}, "[2]": {"assay": "GSH adduct formation (stability in the presence of GSH)", "format": "physicochemical", "conditions": "phosphate buffer with 10 mM GSH; 10-fold excess of GSH at 10 mM, phosphate buffer pH 7.4, 37 °C; read-out: half-life for GSH adduct formation t1/2 GSH (converted)", "description": "Compound (1 mM) was incubated with the respective buffers (HEPES 20 mM, 150 mM NaCl, pH = 7.5; 0.2 M sodium acetate buffer, pH = 5.6; 0.2 M sodium citrate buffer, pH = 6.2; 0.2 M potassium phosphate buffer, pH = 7.4, 1 mM EDTA, with or without 10 mM GSH), with 1% DMSO adjusted for all conditions. […] Per cent (%) compound remaining in the solution was estimated by the ratio of areas under the curve, and data plotted were fitted to pseudo-1st kinetics in the calculation of rate constants (k) and half-lives (t1/2), where k is the negative slope of a linear regression of In (% compound remaining) over time. Half-lives (t1/2) in respective buffers and half-lives for GSH adduct formation (t1/2 GSH) were calculated with the following equations:1 t1/2=In2/k 2 kGSH=ktotalconsumptioninphosphatebufferinpresenceofGSH−k(phosphatebufferinabsenceofGSH) 3 t1/2GSH=In2/k(GSH) […]\na, Percentage (%) of compound remaining was monitored by HPLC-MS and data was fitted to pseudo-first kinetics in calculation of rate constants (k) and half-lives (t1/2) in respective buffers, where k is the negative slope of a linear regression of In (% compound remaining) over time and t 1/2 = In2/k. Initial […]\nInitial GSH concentration ="}, "PDEδ in Jurkat cells": {"molecular_target": "T2, PDEδ in Jurkat cells (Homo sapiens, UniProt O43924)", "T2 construct": "host or cells: Jurkat", "assay": "CETSA in intact cells (in-cell CETSA)", "format": "cell-based", "conditions": "15 min at 37 °C", "description": "Cells were collected and resuspended in cold PBS and further washed thrice in cold PBS. […] Afterwards, NP40 alternative was added to a final concentration of 0.4% (v/v), and cells were lysed by five consecutive freeze/thaw cycles. […] Supernatants were transferred to new tubes, and equal volumes of each sample were loaded on an SDS-PAGE gel and subjected to immunoblot analysis."}, "[3]": {"test_system": "Rheb localisation in PA-TU-8902 cells", "assay": "Immunofluorescence staining of Rheb", "format": "cell-based, human", "conditions": "5 µM, overnight", "description": "Immunostaining: compound-treated PA-TU-8902 cells were washed once with cold PBS, fixed with 3.7% paraformaldehyde in PBS by incubation at room temperature for 10 min and permeabilised with 0.3% Triton X-100 in PBS by incubation at room temperature for 15 min. […] After washing with PBS-T three times, PBS-incubated cells were imaged with Observer Z1 (Carl Zeiss, Germany) with a 63× oil objective."}, "BxPC-3 cells": {"test_system": "BxPC-3 cells", "assay": "Real-time cell analysis (Incucyte) of proliferation", "format": "cell-based, human", "conditions": "Homo sapiens, 72 h, read-out: cellular IC50", "description": "(§3) Real-time cell analysis (RTCA) was conducted using an Incucyte S3 live-cell analysis system (Sartorius AG, Germany). […] Following attachment overnight, the medium was replaced with fresh medium containing test compounds, with all conditions adjusted to contain 0.5% DMSO. […] Phase-contrast images (2 images per well) were automatically captured at 2-h intervals until control wells (DMSO-treated) reached full confluency. Cell growth was quantified using the instrument’s integrated Basic Analyser module by applying a confluence mask to calculate the percentage of phase area confluence. […] Dose-response curves were generated and fitted via four-parameter variable slope nonlinear regression to determine cellular IC₅₀ values."}, "MIA PaCa-2 cells": {"test_system": "MIA PaCa-2 cells", "assay": "Real-time cell analysis (Incucyte) of proliferation", "format": "cell-based, human", "description": "as §3"}, "NCI-H358 cells": {"test_system": "NCI-H358 cells", "assay": "Real-time cell analysis (Incucyte) of proliferation", "format": "cell-based, human", "conditions": "Homo sapiens, NCI-H358, 72 h, NCI-H358; 72 h; read-out: cellular IC50", "description": "as §3"}, "PA-TU-8902 cells": {"test_system": "PA-TU-8902 cells", "assay": "Real-time cell analysis (Incucyte) of proliferation", "format": "cell-based, human", "description": "as §3"}, "SW480 cells": {"test_system": "SW480 cells", "assay": "Real-time cell analysis (Incucyte) of proliferation", "format": "cell-based, human", "conditions": "Homo sapiens, 72 h, read-out: cellular IC50", "description": "as §3"}, "[4]": {"assay": "Mouse liver microsomal stability", "format": "in vitro ADME", "text": "plotted as mean ± standard deviation, representative of 3 technical replicates ( N = 3). Unpaired, two-\nData were plotted as mean ± standard deviation, representative of 3 technical replicates in the presence"}, "[5]": {"molecular_target": "PDEδ in Jurkat cell lysates (Homo sapiens, UniProt O43924)", "assay": "In-lysate CETSA (immunoblot readout)", "format": "binding", "parameters": "host or cells: Jurkat"}, "PDEδ [6]": {"molecular_target": "T3, PDEδ (Homo sapiens, UniProt O43924)", "assay": "Covalent modification of PDEδ by MALDI mass spectrometry", "format": "binding", "parameters": "His tag; made in house; host or cells: Escherichia coli Rosetta (BL21DE3), pET plasmids", "description": "as §2\n1. Supplementary Figures and Tables\nPDEδ (20 µM) was incubated with compounds (60 µM) in HEPES\nPercentages of covalent adduct formation were estimated by the relative intensity of the respective peaks in MALDI spectra. Data are presented as mean ± s.e.m.\nApparent pseudo -first order kobs was estimated by percentages of covalent adduct formation at 2 hours by MALDI. Plot of kobs (h-1) against concentration (µM) was fitted by GraphPad […]\nPrism Michaelis-Menten model and separate values for kinact and KI were obtained to calculate apparent […]\nPDEδ (20 µM) was incubated with\nas §1\nHEPES buffer, n = 3 for the rest). One-way ANOVA with matched time-points, with Geisser-"}, "PDEδ [7]": {"molecular_target": "T3, PDEδ", "assay": "Competitive fluorescence polarisation assay (FA probe displacement)", "format": "binding", "parameters": "His tag; made in house; host or cells: Escherichia coli Rosetta (BL21DE3), pET plasmids"}}}
{"smiles": "Cc1ccc(-n2nc3c(=O)n(CCCCS(=O)(=O)N(CCc4cccc(CCBr)c4)CC4CCNCC4)nc(C)c3c2C)cc1", "note": "[6a]", "values": [{"measurement": "rate of covalent PDEδ modification in the presence of Arl2•GppNHp", "setting": "[1]", "value": "comparable rate"}, {"measurement": "half-life at 1 mM", "setting": "[2]", "value": 43.1, "unit": "days"}, {"measurement": "ΔTm at 10 µM", "setting": "PDEδ in Jurkat cells", "value": "9.3 ± 0.2", "unit": "°C"}, {"measurement": "cellular Rheb distribution", "setting": "[3]", "value": "visible and sustained redistribution of Rheb to endomembranes"}, {"measurement": "IC50", "setting": "BxPC-3 cells", "value": "20 ± 1.3", "unit": "µM"}, {"measurement": "% Growth rate of MIA PaCa-2 cells", "setting": "MIA PaCa-2 cells; 25 µM", "value": 15, "unit": "%"}, {"measurement": "% Growth rate of MIA PaCa-2 cells", "setting": "MIA PaCa-2 cells; 50 µM", "value": 15, "unit": "%"}, {"measurement": "IC50", "setting": "MIA PaCa-2 cells; Homo sapiens, MIA PaCa-2, 72 h, read-out: cellular IC50", "value": "7 ± 0.4", "unit": "µM"}, {"measurement": "difference in cellular potency vs Deltazinone 1", "setting": "MIA PaCa-2 cells; MIA PaCa-2", "value": "> 7", "unit": "fold"}, {"measurement": "IC50", "setting": "NCI-H358 cells", "value": "6.3 ± 3.5", "unit": "µM"}, {"measurement": "% Growth rate of PA-TU-8902 cells", "setting": "PA-TU-8902 cells; 25 µM", "value": 16, "unit": "%"}, {"measurement": "% Growth rate of PA-TU-8902 cells", "setting": "PA-TU-8902 cells; 50 µM", "value": 26, "unit": "%"}, {"measurement": "IC50", "setting": "PA-TU-8902 cells; Homo sapiens, PaTu 8902, PA-TU-8902, 72 h, read-out: cellular IC50", "value": "6.8 ± 0.5", "unit": "µM"}, {"measurement": "IC50", "setting": "SW480 cells", "value": "18.6 ± 3", "unit": "µM"}, {"measurement": "CLhep predicted", "setting": "[4]; liver microsomes, translated from intrinsic clearance, mouse, read-out: in vivo clearance (simplified well-stirred model) (converted)", "value": "~66.7", "unit": "mL/min/kg"}, {"measurement": "microsomal stability in the absence of co-factor NADPH", "setting": "[4]; mouse liver microsomes", "value": "metabolically stable"}, {"measurement": "microsomal CLint", "setting": "[4]; mouse liver microsomes 0.5 mg/ml, + NADPH, read-out: intrinsic clearance", "value": 117, "unit": "µL/min/mg"}, {"measurement": "time to almost complete metabolism", "setting": "[4]; mouse, liver microsomes, + NADPH", "value": "≤ 50", "unit": "min"}, {"measurement": "half-life", "setting": "[4]; mouse, liver microsomes, + NADPH, read-out: half-life T1/2 in mouse liver microsomes", "value": 0.00819, "unit": "days"}, {"measurement": "ΔTm at 10 µM", "setting": "[5]; 15 min at 37 °C", "value": "11.8 ± 0.2", "unit": "°C"}, {"measurement": "ΔTm at 10 µM", "setting": "[5]; 2 h at 37 °C", "value": "22.1 ± 1", "unit": "°C"}, {"measurement": "KI", "setting": "PDEδ [6]; Michaelis-Menten fit of kobs", "value": 464.9, "unit": "µM"}, {"measurement": "covalent modification of PDEδ in different solvents", "setting": "PDEδ [6]; buffers of various pH, 8 h and 24 h", "value": "pH-independent"}, {"measurement": "% labelling at 24 h", "setting": "PDEδ [6]; representative MALDI spectrum, Fig. 2c", "value": 100, "unit": "%"}, {"measurement": "IC50", "setting": "PDEδ [7]; 37 °C overnight", "value": "0.0065 ± 0.0035", "unit": "µM"}, {"measurement": "IC50", "setting": "PDEδ [7]; PDEδ 40 nM, FA probe 24 nM, room temperature overnight", "value": "0.0152 ± 0.0086", "unit": "µM"}]}
